From PubChem BioAssay (NCI)
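These data come from cells grown in 96-well plates and exposed to compound for 48 hours at five concentrations. TGI is the concentration that stops growth completely.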

How the values were obtained:
Test in all cases: NCI anticancer screen, dose series, 48 h
[1] = tested on: NCI/ADR-RES ovarian
[2] = tested on: EKVX NSCLC
[3] = tested on: HS 578T breast
[4] = tested on: A498 renal
[5] = tested on: OVCAR-4 ovarian
[6] = tested on: UO-31 renal
[7] = tested on: PC-3 prostate
[8] = tested on: SN12C renal
[9] = tested on: HT29 colon
[10] = tested on: MDA-MB-435
[11] = tested on: SK-MEL-28 melanoma
[12] = tested on: IGROV1 ovarian
[13] = tested on: ACHN renal
[14] = tested on: CCRF-CEM leukemia
[15] = tested on: SK-MEL-2 melanoma
[16] = tested on: OVCAR-5 ovarian
[17] = tested on: HOP-92 NSCLC
[18] = tested on: NCI-H522 lung
[19] = tested on: KM12 colon
[20] = tested on: MOLT-4 leukemia
[21] = tested on: K-562 leukemia
[22] = tested on: HCT-15 colon
[23] = tested on: DU-145 prostate
[24] = tested on: 786-0 renal
[25] = tested on: RXF 393 renal
[26] = tested on: M14 melanoma
[27] = tested on: NCI-H460 lung
[28] = tested on: HCT-116 colon
[29] = tested on: OVCAR-3 ovarian
[30] = tested on: BT-549 breast
[31] = tested on: SK-MEL-5 melanoma
[32] = tested on: MDA-MB-231 breast
[33] = tested on: SNB-19 CNS
[34] = tested on: SF-295 CNS
[35] = tested on: HL-60(TB) leukemia
[36] = tested on: T-47D breast
[37] = tested on: MDA-N
[38] = tested on: OVCAR-8 ovarian
[39] = tested on: SW-620 colon
[40] = tested on: A549 NSCLC
[41] = tested on: SF-268 CNS
[42] = tested on: NCI-H23 lung
[43] = tested on: TK-10 renal
[44] = tested on: CAKI-1 renal
[45] = tested on: U251 CNS
[46] = tested on: HOP-62 NSCLC
[47] = tested on: LOX IMVI melanoma
[48] = tested on: NCI-H226 lung
[49] = tested on: UACC-62 melanoma
[50] = tested on: UACC-257 melanoma
[51] = tested on: MALME-3M melanoma
[52] = tested on: HCC-2998 colon
[53] = tested on: COLO 205 colon
[54] = tested on: SF-539 CNS
[55] = tested on: MCF7 breast
[56] = tested on: SK-OV-3 ovarian
[57] = tested on: RPMI-8226 leukemia
[58] = tested on: SNB-75 CNS
[59] = tested on: SR leukemia

CC1CCC(O)(C(C)(C(=O)O)c2ccccc2)CC1 (configuration not stated)
TGI [1]: > 100 µM
TGI [2]: > 100 µM
TGI [3]: > 100 µM
TGI [4]: > 100 µM
TGI [5]: > 100 µM
TGI [6]: > 100 µM
TGI [7]: > 100 µM
TGI [8]: > 100 µM
TGI [9]: > 100 µM
TGI [10]: > 100 µM
TGI [11]: > 100 µM
TGI [12]: > 100 µM
TGI [13]: > 100 µM
TGI [14]: > 100 µM
TGI [15]: > 100 µM
TGI [16]: > 100 µM
TGI [17]: > 100 µM
TGI [18]: > 100 µM
TGI [19]: > 100 µM
TGI [20]: > 100 µM
TGI [21]: > 100 µM
TGI [22]: > 100 µM
TGI [23]: > 100 µM
TGI [24]: > 100 µM
TGI [25]: > 100 µM
TGI [26]: > 100 µM
TGI [27]: > 100 µM
TGI [28]: > 100 µM
TGI [29]: > 100 µM
TGI [30]: > 100 µM
TGI [31]: > 100 µM
TGI [32]: > 100 µM
TGI [33]: > 100 µM
TGI [34]: > 100 µM
TGI [35]: > 100 µM
TGI [36]: > 100 µM
TGI [37]: > 100 µM
TGI [38]: > 100 µM
TGI [39]: > 100 µM
TGI [40]: > 100 µM
TGI [41]: > 100 µM
TGI [42]: > 100 µM
TGI [43]: > 100 µM
TGI [44]: > 100 µM
TGI [45]: > 100 µM
TGI [46]: > 100 µM
TGI [47]: > 100 µM
TGI [48]: > 100 µM
TGI [49]: > 100 µM
TGI [50]: > 100 µM
TGI [51]: > 100 µM

CN(Cc1cnc2nc(N)nc(N)c2n1)c1ccc(C(=O)NCS(=O)(=O)O)cc1
TGI [1]: > 100 µM
TGI [2]: > 100 µM
TGI [3]: > 100 µM
TGI [4]: > 100 µM
TGI [5]: > 100 µM
TGI [6]: > 100 µM
TGI [52]: > 100 µM
TGI [7]: > 100 µM
TGI [8]: > 100 µM
TGI [9]: > 100 µM
TGI [10]: > 100 µM
TGI [11]: > 100 µM
TGI [12]: > 100 µM
TGI [53]: > 100 µM
TGI [13]: > 100 µM
TGI [15]: > 100 µM
TGI [16]: > 100 µM
TGI [17]: > 100 µM
TGI [18]: > 100 µM
TGI [19]: > 100 µM
TGI [20]: > 100 µM
TGI [54]: > 100 µM
TGI [21]: > 100 µM
TGI [22]: > 100 µM
TGI [23]: 82.7 µM
TGI [24]: > 100 µM
TGI [26]: > 100 µM
TGI [27]: > 100 µM
TGI [55]: > 100 µM
TGI [28]: > 100 µM
TGI [29]: > 100 µM
TGI [56]: > 100 µM
TGI [30]: > 100 µM
TGI [31]: > 100 µM
TGI [57]: > 100 µM
TGI [32]: > 100 µM
TGI [33]: > 100 µM
TGI [34]: > 100 µM
TGI [36]: > 100 µM
TGI [37]: > 100 µM
TGI [38]: > 100 µM
TGI [39]: > 100 µM
TGI [40]: > 100 µM
TGI [41]: > 100 µM
TGI [42]: > 100 µM
TGI [43]: > 100 µM
TGI [58]: > 100 µM
TGI [45]: > 100 µM
TGI [46]: > 100 µM
TGI [47]: > 100 µM
TGI [48]: > 100 µM
TGI [49]: > 100 µM
TGI [50]: > 100 µM
TGI [51]: > 100 µM

CCOC(=O)C1=C(C)OC(=O)[C@@]2(OC)C=C(Cl)[C@@]12C
TGI [1]: > 100 µM
TGI [2]: > 100 µM
TGI [3]: > 100 µM
TGI [4]: > 100 µM
TGI [5]: > 100 µM
TGI [6]: > 100 µM
TGI [52]: > 100 µM
TGI [7]: > 100 µM
TGI [8]: > 100 µM
TGI [9]: > 100 µM
TGI [10]: > 100 µM
TGI [11]: > 100 µM
TGI [12]: > 100 µM
TGI [53]: > 100 µM
TGI [13]: > 100 µM
TGI [14]: > 100 µM
TGI [16]: > 100 µM
TGI [17]: > 100 µM
TGI [18]: > 100 µM
TGI [19]: > 100 µM
TGI [20]: > 100 µM
TGI [54]: > 100 µM
TGI [21]: > 100 µM
TGI [22]: > 100 µM
TGI [23]: > 100 µM
TGI [24]: > 100 µM
TGI [25]: > 100 µM
TGI [26]: > 100 µM
TGI [27]: > 100 µM
TGI [55]: > 100 µM
TGI [28]: > 100 µM
TGI [29]: > 100 µM
TGI [56]: > 100 µM
TGI [30]: > 100 µM
TGI [31]: > 100 µM
TGI [57]: > 100 µM
TGI [32]: > 100 µM
TGI [33]: > 100 µM
TGI [34]: > 100 µM
TGI [35]: 91 µM
TGI [37]: > 100 µM
TGI [38]: > 100 µM
TGI [39]: > 100 µM
TGI [40]: > 100 µM
TGI [59]: > 100 µM
TGI [41]: > 100 µM
TGI [42]: > 100 µM
TGI [43]: > 100 µM
TGI [58]: > 100 µM
TGI [44]: > 100 µM
TGI [45]: > 100 µM
TGI [46]: > 100 µM
TGI [47]: > 100 µM
TGI [48]: > 100 µM
TGI [49]: > 100 µM
TGI [50]: > 100 µM
TGI [51]: > 100 µM
